By inhibition is commonly meant the relative decrease from the control value, in per cent. By IC50 is commonly meant the midpoint of a concentration-inhibition curve. The low end stands for higher potency, the high end for lower potency. By Km is commonly meant the substrate concentration at which the rate is half of its maximum.

Experimental findings from paper PMC11414674, “Cryo-EM structure of ACE2-SIT1 in complex with tiagabine” (The Journal of Biological Chemistry, 2024) are described below.

For data set [1], the target named is T1, SIT1 (SLC6A20) (Homo sapiens, UniProt Q9NP91). Description: […]proline uptake in Xenopus oocytes, inhibitor at […]. More on the design: with ACE2. The format is cell-based. To be noted: read-out: % inhibition at 100 μM.
T1 sequence (Q9BYF1 18-805 partner, one chain of several): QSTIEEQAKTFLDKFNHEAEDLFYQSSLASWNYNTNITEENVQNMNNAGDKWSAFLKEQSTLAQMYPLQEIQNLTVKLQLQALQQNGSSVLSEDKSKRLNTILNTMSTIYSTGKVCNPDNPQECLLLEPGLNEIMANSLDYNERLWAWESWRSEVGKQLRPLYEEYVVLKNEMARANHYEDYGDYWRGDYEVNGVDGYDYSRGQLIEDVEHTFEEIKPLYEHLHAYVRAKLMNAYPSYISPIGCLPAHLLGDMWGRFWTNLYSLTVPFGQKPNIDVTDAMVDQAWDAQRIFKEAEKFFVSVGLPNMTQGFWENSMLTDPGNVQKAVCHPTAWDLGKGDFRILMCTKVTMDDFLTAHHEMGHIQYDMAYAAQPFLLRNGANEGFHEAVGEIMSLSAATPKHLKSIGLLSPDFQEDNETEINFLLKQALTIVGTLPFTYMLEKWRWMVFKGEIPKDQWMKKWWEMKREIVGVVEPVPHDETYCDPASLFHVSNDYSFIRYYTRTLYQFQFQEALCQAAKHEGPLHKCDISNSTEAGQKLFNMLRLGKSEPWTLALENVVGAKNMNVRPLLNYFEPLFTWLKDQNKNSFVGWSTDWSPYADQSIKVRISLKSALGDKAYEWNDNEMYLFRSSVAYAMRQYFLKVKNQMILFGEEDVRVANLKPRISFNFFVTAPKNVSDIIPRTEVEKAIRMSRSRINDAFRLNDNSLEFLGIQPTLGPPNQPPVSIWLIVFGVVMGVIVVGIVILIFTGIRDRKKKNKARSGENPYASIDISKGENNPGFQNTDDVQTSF
For data set [2], the target named is T2, B0AT2 (SLC6A15) (Homo sapiens, UniProt Q9H2J7).
T2 sequence (Q9H2J7 1-730): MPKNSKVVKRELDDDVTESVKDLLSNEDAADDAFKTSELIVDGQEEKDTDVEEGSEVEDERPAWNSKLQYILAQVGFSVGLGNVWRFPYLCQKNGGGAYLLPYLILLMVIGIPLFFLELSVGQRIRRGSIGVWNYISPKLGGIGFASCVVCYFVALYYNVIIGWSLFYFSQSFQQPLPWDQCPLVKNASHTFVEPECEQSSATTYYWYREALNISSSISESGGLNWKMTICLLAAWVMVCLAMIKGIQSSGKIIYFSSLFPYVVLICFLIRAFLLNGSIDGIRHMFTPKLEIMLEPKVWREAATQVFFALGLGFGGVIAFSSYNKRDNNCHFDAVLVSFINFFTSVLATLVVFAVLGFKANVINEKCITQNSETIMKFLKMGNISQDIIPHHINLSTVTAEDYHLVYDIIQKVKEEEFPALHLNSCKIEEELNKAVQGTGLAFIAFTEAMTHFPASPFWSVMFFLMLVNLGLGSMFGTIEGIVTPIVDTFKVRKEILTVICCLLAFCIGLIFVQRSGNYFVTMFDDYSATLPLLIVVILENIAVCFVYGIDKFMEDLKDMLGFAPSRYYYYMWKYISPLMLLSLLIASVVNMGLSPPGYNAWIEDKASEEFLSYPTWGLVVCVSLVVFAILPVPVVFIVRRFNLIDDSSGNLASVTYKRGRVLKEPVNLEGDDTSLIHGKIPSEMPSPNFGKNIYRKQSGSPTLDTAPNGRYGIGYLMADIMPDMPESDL
Put plainly: labelled leucine uptake in Xenopus oocytes, tiagabine at […]. The format is cell-based.

In data set [3] the target is T1, SIT1 (SLC6A20). Description: cryo-EM structure at […] Å; IC50 from […]proline uptake in Xenopus oocytes expressing SIT1-ACE2 ([…] proline). Also on record: full-length human SIT1, N-terminal FLAG tag, in complex with full-length ACE2; with ACE2. The format is cell-based.
Substrate in data set [4]: O=C(O)[C@@H]1CCCN1
Description: cells, lysate or membranes. To be noted: Na+ and Cl- orthosteric substrate site.

In the case of `O=C(O)C1=CCCN(CCOC(c2ccc(C(F)(F)F)cc2)c2ccc(C(F)(F)F)cc2)C1` [CI966], the inhibition at 100 µM in data set [1] is 53%. On the same count and under the same terms, next, `O=C(O)C1CCCN(CCC=C(c2ccccc2)c2ccccc2)C1` (centres unmarked) [SKF89976A]: 58%. On to `Cc1ccsc1C(=CCCN1CCC[C@@H](C(=O)O)C1)c1sccc1C` [tiagabine], for which, in data set [2], the “labelled leucine uptake in Xenopus oocytes, tiagabine at 100 μM” value is reported as “The branched-chain amino acid transporter B^0AT2 (SLC6A15) was similarly sensitive to inhibition by Tiagabine”. Moreover, 18 ± 4 µM corresponded to half-maximal inhibition in data set [3] (IC50).

B1: SIT1 (SLC6A20) (Homo sapiens) (protein)
chain: MEKARPLWANSLQFVFACISYAVGLGNVWRFPYLCQMYGGGSFLVPYIIMLIVEGMPLLYLELAVGQRMRQGSIGAWRTISPYLSGVGVASVVVSFFLSMYYNVINAWAFWYLFHSFQDPLPWSVCPLNGNHTGYDEECEKASSTQYFWYRKTLNISPSLQENGGVQWEPALCLLLAWLVVYLCILRGTESTGKVVYFTASLPYCVLIIYLIRGLTLHGATNGLMYMFTPKIEQLANPKAWINAATQIFFSLGLGFGSLIAFASYNEPSNNCQKHAIIVSLINSFTSIFASIVTFSIYGFKATFNYENCLKKVSLLLTNTFDLEDGFLTASNLEQVKGYLASAYPSKYSEMFPQIKNCSLESELDTAVQGTGLAFIVYTEAIKNMEVSQLWSVLYFFMLLMLGIGSMLGNTAAILTPLTDSKIISSHLPKEAISGLVCLVNCAIGMVFTMEAGNYWFDIFNDYAATLSLLLIVLVETIAVCYVYGLRRFESDLKAMTGRAVSWYWKVMWAGVSPLLIVSLFVFYLSDYILTGTLKYQAWDASQGQLVTKDYPAYALAVIGLLVASSTMCIPLAALGTFVQRRLKRGDADPVA
Turning to B1, the Km in data set [4] came out at 130 µM.
